{
  "source": "patent US20050042316A1",
  "about": "“Attractants for moths” (priority 2001, published 2005)",
  "key": {"H. armigera moths": {"tested_on": "H. armigera moths", "assay": "two-choice olfactometer, moths entering the test chamber", "format": "in vivo, Helicoverpa armigera", "details": "for attractiveness in the olfactometer: blend complexity studies, FIG. 8; for optimum concentration in the olfactometer: formulated in Sirene base, FIG. 6", "text": "The design of our olfactometer (FIG. 1) has been described by Gregg et al. (1998) and is similar to that of Beerwinkle et al. (1996). The olfactometer is a two-choice system in which moths choose between two airstreams. One carries either a bouquet (about 200 g) of freshly cut plant stems with their bases in a flask of water, or plant volatiles formulated and presented as described below (the test chamber). The other carries clean air (the control chamber). Each run normally uses 50 moths, and runs are normally replicated three times for each sex and each attractant. Thus, olfactometer data points are usually each based on the responses of 150 moths. Moths are laboratory-reared, unmated and aged 1-4 (usually 2-3) days. We use two criteria for attractiveness, the test % (percentage of the total 150 moths which enter the test chamber), and success rate (number entering the test chamber relative to those entering the control chamber). The former is our primary criterion, and is the one presented here. Data are analysed using Zar's procedure for multiple comparison of proportions. With N=150, the minimum significant difference between two percentages using-this procedure is about 8%.\nFor testing single chemicals in the olfactometer early in the project, we dissolve the synthetic chemical in canola oil at a concentration of 10%. 200 μl of this is absorbed into a cotton dental wick which is placed in the test airstream of the olfactometer. These lures are changed every 2 h during olfactometer runs. Later tests of single chemicals to determine the effects of varying concentration are done using Sirene formulations, as discussed below.\nFor testing chemical blends in the olfactometer and in field trapping experiments, we are formulating in Sirene, a mixture of anti-oxidants and UV protectants which was developed by Novartis for attract-and-kill of several moth species using pheromones, and for which IPM Technologies Ltd have worldwide marketing and development rights. Chemicals are mixed into Sirene in the barrel of a syringe using a slow (4 rpm) broad-bladed propeller, which stirs the highly viscous material for 3 h. Formulations are then stored at 40 C in the sealed syringe for periods of up to 2 weeks. Sirene formulations are tested in the olfactometer by placing about 100 mg on a horizontal square (1×1 cm) of plastic (Corflute®), which is then placed on a pin in the test airstream of the olfactometer. For field testing, the plastic square carrying the formulation is held horizontally under the lid of the AgriSense trap, in the same position that a pheromone lure would be, using a screw."}, "moths": {"tested_on": "moths", "assay": "laboratory feeding studies with ingestible formulations", "format": "in vivo", "details": "1% toxicant in ingestible formulations", "protocol": "To determine whether moths will feed on the ingestible formulations, and whether they die as a result, we place a single moth in a 1 litre plastic container which has 50 μl of the formulation as a single droplet in a beer bottle cap, on the bottom of the container. In some experiments laboratory-reared moths are used in a constant 25° C. reverse-cycle system. In others natural cycle laboratory moths are used in containers placed outdoors. Moths are observed at regular intervals and dead ones removed for dissection. At the end of the scotophase all surviving moths are removed and after a further hour are dissected.\nIn these studies small droplets (50-100 μl) were placed in a 1 litre container with the moths, so they spent the night in close proximity (within 10 cm) of the droplet."}, "Helicoverpa spp.": {"tested_on": "Helicoverpa spp.", "assay": "field trapping trials with AgriSense traps", "format": "in vivo", "details": "for Peak catch % of phero / Whole experiment Lure N: Downs", "text": "For field tests of the attractiveness of different blends we use AgriSense pheromone traps of the canister type (Gregg and Wilson 1991). Traps are usually cleared three times weekly, and the catch sorted. Moths are sexed and the females dissected to determine mated status. We normally test 5 formulations at a time, replicated 4 times, so there are 4 rows of 5 traps, each row containing one replicate of each formulation. Traps are spaced 50 m apart and are rotated, within a row, between catch intervals. Experiments are analysed as Latin squares. Field trials at Cecil Plains were conducted in soybeans, cotton, chickpea, wheat, fallow land and sunflower, and at Kununurra and China, in cotton.\nThese trials have been done at different times, and in different areas, different crops and different weather conditions. In some cases the conditions have been less than optimal. Examples include the Twynam 1, 2 and 3 trials in the Ord River, where night temperatures were often too low for moth activity, and the last two Wamara trials in 2000 where moth numbers in the district were extremely low. Because of these differences it is not possible to directly compare the numbers of moths caught between trials. We have therefore expressed the results as a percentage of the pheromone traps run in the same experiments. This percentage has been calculated on the catch interval with the highest volatile catches. We do this because the residual life of some volatiles is short and some formulations probably lose attractiveness during the course of the trials, whereas the pheromone release rate remains relatively constant. PBE1 was also included in almost all of these trials, as a standard plant volatile blend. The unweighted average catch of PBE1, across all trials, was 5.8% of the pheromone catch. Though PBE1 and some other volatile formulations occasionally caught up to 15-33% of the corresponding pheromone catch, when this occurred the overall numbers of moths were low, so the results are statistically unreliable."}, "Lab reared female moths": {"tested_on": "Lab reared female moths", "assay": "field wind tunnel trials", "format": "in vivo", "details": "trial 8, Yanco, 0.5% methomyl", "protocol": "These are used to observe behavioural responses of moths around lures, and to record kill rates of different blends and formulations, in semi-natural conditions. Clear polythene is stretched around a series of steel hoops 1.2 m in diameter which are suspended from a horizontal pipe Flywire is placed over each end. The wind tunnels are hung just above ground level and oriented parallel to the prevailing wind. Lures (3 bottle tops containing 100-200 μl of the attractant under test) are placed on a plastic dinner plate in the upwind end and 20-50 moths are released into the downwind end about 1 h before sunset. Lab reared female moths produced under natural photoperiod are used. Behavioural responses are observed using night vision glasses. In the morning both live and dead moths are collected and dissected to determine from the presence of green dye whether they have fed on the lure."}, "[1]": {"details": "single chemicals in Sirene formulations"}, "[2]": {"details": "single chemicals, 10% in canola oil, females, FIG. 5"}, "[3]": {"details": "Wamara3 Soybean, 20 Feb-12 Mar 99"}},
  "data": [
    {"smiles": "OCCc1ccccc1", "note": "[2-phenylethanol]", "values": [
      {"measurement": "test %", "setting": "H. armigera moths; 2% concentration in Sirene", "result": 26.4, "unit": "%"},
      {"measurement": "attractiveness in the olfactometer", "setting": "H. armigera moths", "result": "significantly attractive"},
      {"measurement": "test %", "setting": "H. armigera moths; in canola oil", "result": 29, "unit": "%"},
      {"measurement": "attraction in the olfactometer (statistical significance)", "setting": "H. armigera moths; [1]", "result": "confirmed"},
      {"measurement": "attraction in the olfactometer (statistical significance)", "setting": "H. armigera moths; [2]", "result": "statistically significant levels of attraction"}
    ]},
    {"smiles": "CC1=CCC2C(C1)C2(C)C", "note": "(stereo not shown) [Blend 3-carene, 3-carene]", "values": [
      {"measurement": "attraction in the olfactometer (statistical significance)", "setting": "H. armigera moths; [2]", "result": "statistically significant levels of attraction"}
    ]},
    {"smiles": "CC/C=C\\CCOC(C)=O", "note": "[Z-3-hexenyl acetate]", "values": [
      {"measurement": "attraction in the olfactometer (statistical significance)", "setting": "H. armigera moths; [2]", "result": "statistically significant levels of attraction"}
    ]},
    {"smiles": "CC/C=C\\CCOC(=O)c1ccccc1O", "note": "[Z-3-hexenyl salicylate]", "values": [
      {"measurement": "test %", "setting": "H. armigera moths; 2% concentration in Sirene", "result": 26.7, "unit": "%"},
      {"measurement": "attractiveness in the olfactometer", "setting": "H. armigera moths", "result": "significantly attractive on its own"},
      {"measurement": "test %", "setting": "H. armigera moths; in canola oil", "result": 33.8, "unit": "%"},
      {"measurement": "attraction in the olfactometer (statistical significance)", "setting": "H. armigera moths; [1]", "result": "confirmed"},
      {"measurement": "attraction in the olfactometer (statistical significance)", "setting": "H. armigera moths; [2]", "result": "statistically significant levels of attraction"}
    ]},
    {"smiles": "OCc1ccccc1", "note": "[benzyl alcohol]", "values": [
      {"measurement": "optimum concentration in the olfactometer", "setting": "H. armigera moths", "result": "about 1%"},
      {"measurement": "attraction in the olfactometer (statistical significance)", "setting": "H. armigera moths; [1]", "result": "confirmed"},
      {"measurement": "attraction in the olfactometer (statistical significance)", "setting": "H. armigera moths; [2]", "result": "statistically significant levels of attraction"}
    ]},
    {"smiles": "CNC(=O)Oc1cccc2ccccc12", "note": "[carbaryl]", "values": [
      {"measurement": "% killed, summary of trials", "setting": "moths", "result": "69-94%"}
    ]},
    {"smiles": "CC(C)=CCC/C(C)=C/CO", "note": "[geraniol]", "values": [
      {"measurement": "attraction in the olfactometer (statistical significance)", "setting": "H. armigera moths; [2]", "result": "statistically significant levels of attraction"}
    ]},
    {"smiles": "C=C(C)[C@H]1CC=C(C)CC1", "note": "[limonene]", "values": [
      {"measurement": "attractiveness in the olfactometer", "setting": "H. armigera moths", "result": "statistically significant"},
      {"measurement": "attraction in the olfactometer (statistical significance)", "setting": "H. armigera moths; [2]", "result": "statistically significant levels of attraction"}
    ]},
    {"smiles": "CNC(=O)ON=C(C)SC", "note": "[methomyl]", "values": [
      {"measurement": "% killed, summary of trials", "setting": "moths", "result": "killed all moths"}
    ]},
    {"smiles": "C=CCc1ccc(OC)c(OC)c1", "note": "[methyl eugenol]", "values": [
      {"measurement": "optimum concentration in the olfactometer", "setting": "H. armigera moths", "result": "about 2%"}
    ]},
    {"smiles": "O=CCc1ccccc1", "note": "[phenylacetaldehyde]", "values": [
      {"measurement": "attractiveness in the olfactometer", "setting": "H. armigera moths", "result": "significantly attractive"},
      {"measurement": "optimum concentration in the olfactometer", "setting": "H. armigera moths", "result": "about 1%"},
      {"measurement": "attraction in the olfactometer (statistical significance)", "setting": "H. armigera moths; [1]", "result": "confirmed"},
      {"measurement": "attraction in the olfactometer (statistical significance)", "setting": "H. armigera moths; [2]", "result": "statistically significant levels of attraction"},
      {"measurement": "Peak catch % of phero", "setting": "Helicoverpa spp.; Wamara1Soybean, 1-30 Jan 99", "result": 0.4, "unit": "%"},
      {"measurement": "Whole experiment Lure N", "setting": "Helicoverpa spp.; Wamara1Soybean, 1-30 Jan 99", "result": 10},
      {"measurement": "Peak catch % of phero", "setting": "Helicoverpa spp.; Wamara2 Soybean, 13-19 Feb 99", "result": 1.1, "unit": "%"},
      {"measurement": "Whole experiment Lure N", "setting": "Helicoverpa spp.; Wamara2 Soybean, 13-19 Feb 99", "result": 5},
      {"measurement": "Peak catch % of phero", "setting": "Helicoverpa spp.; [3]", "result": 3.1, "unit": "%"},
      {"measurement": "Whole experiment Lure N", "setting": "Helicoverpa spp.; [3]", "result": 8},
      {"measurement": "catch in field traps, in words", "setting": "Helicoverpa spp.; field trapping trials", "result": "caught very few moths"},
      {"measurement": "catch relative to the PBE1 catch", "setting": "Helicoverpa spp.; third direct comparison with PBE1", "result": "less than a quarter"},
      {"measurement": "% killed", "setting": "Lab reared female moths; attractant at 2%", "result": 33.3, "unit": "b %"},
      {"measurement": "N killed", "setting": "Lab reared female moths; attractant at 2%", "result": 14},
      {"measurement": "% killed", "setting": "Lab reared female moths; attractant at 8%", "result": 25.6, "unit": "b %"},
      {"measurement": "N killed", "setting": "Lab reared female moths; attractant at 8%", "result": 11}
    ]}
  ]
}
